Results as given in patent EP3741379A1, “COSMETIC COMPOSITION COMPRISING AZADIRACHTA INDICA LEAF EXTRACT” (HONEST CO.,LTD., priority 2019, dated 2020).

Legend:
TRP-1 mRNA = TRP-1 mRNA expression through real-time PCR in α-MSH-treated B16F10; type: cell-based, mouse; conditions: at 100 µg/mL
Protocol: As cell lines, RAW 264.7, B16F10 and HacaT cells were aliquoted at 3 x 10^5 cells/well to a 6-well plate and cultured in a 5% CO2 incubator at 37°C for 24 hr. Then, the culture medium was replaced with serum-free DMEM, after which, in order to induce cell inflammation, whitening and wrinkle reduction, RAW 264.7 and B16F10 were treated with lipopolysaccharide (LPS) and alpha-melanocyte-stimulating hormone (α-MSH), respectively, at 1 ppm/well, and the cells were treated with each sample solution at different concentrations and then cultured in a 5% CO2 incubator at 37°C for 24 hr. As for HacaT cells, all experimental groups except the untreated group were washed once with PBS, added with PBS, and irradiated with UV-B (300 mJ/cm^2). After irradiation, the cells were treated with the sample solution at different concentrations and cultured for 24 hr to 48 hr. […] Thereafter, RNA was quantified using absorbance, and cDNA was then synthesized using a TProfessional basic thermocycler instrument. Thereafter, 40 PCR cycles of 95°C for 10 sec, 60°C for 15 sec, and 72°C for 20 sec were performed using Power SYBR Green PCR Master Mix reagents, primers and cDNA and using a Step One real-time PCR system, and quantitative analysis was conducted using an analysis program.
The inhibition rate of TRP-1 mRNA expression by AIE was determined through real-time PCR.

[1] = Hyaluronic acid + iron 10 ppm; sample at 0.2%
Source text: When hyaluronic acid is degraded by heavy metals, the viscosity of the solution decreases, so the lower the viscosity, the greater the degradation of hyaluronic acid.

Row | Compound | inhibition of TRP-1 mRNA expression (TRP-1 mRNA) | Viscosity [1]
1 | OC[C@H]1O[C@@H](Oc2ccc(O)cc2)[C@H](O)[C@@H](O)[C@@H]1O [arbutin] | 14.86% | –
2 | O=C([O-])CN(CCN(CC(=O)O)CC(=O)O)CC(=O)[O-].[Na+].[Na+] [EDTA-2Na] | – | 7,800 cp
